Patent publication US20050026783A1, “Herbicide combinations comprising specific sulfonamides” (priority 2003, published 2005)
Like-named read-outs stand apart in the source and are kept apart here.

Tests used:
[1] = test system: Triticum aestivum; type: in vivo; conditions: field trial, scored about 4 weeks after application, mean of 2-4 plots
Experimental: (§1) The seeds or rhizome pieces of the harmful plants and the useful plants were laid out or were present in the soil, and they were grown under natural outdoor conditions. Treatment with the active compounds or active compound combinations was carried out […] before and/or after the emergence of the plants, generally at the 2- to 4-leaf stage, in various dosages using a water application rate of 100 to 400 l/ha (converted).
(§2) After the application (about 4 weeks after the application), the effectiveness of the active compounds or active compound combinations was scored visually by comparing the treated plots to untreated control plots. During scoring, damage and development of all above-ground parts of plants was assessed. Scoring was carried out using a percentage scale (100% effect=all plants have died; 50% effect=50% of the plants and the green parts of the plants have died; 0% effect=no effect observed=like control plot). In each case, the mean score of 2-4 plots was calculated.
(§3) The results are shown in the table below; the effect of the individual application of active compounds (A+B) and C being stated in brackets.

[2] = test system: Veronica hederifolia; type: in vivo; conditions: field trial, scored about 4 weeks after application, mean of 2-4 plots
Experimental: as §1, §2, §3

[3] = application rate 80 g of active substance/hectare
[4] = application rate 15 g of active substance/hectare
[5] = application rate 20 g of active substance/hectare

CCCCCCCC(=O)Oc1c(I)cc(C#N)cc1I [ioxynil-octanoate]
Triticum aestivum % damage [1, 3]: 0% | Veronica hederifolia % effect [2, 3]: 45%

COc1cc(OC)nc(NC(=O)NS(=O)(=O)N(C)S(C)(=O)=O)n1 [amidosulfuron, 1-(4,6-dimethoxypyrimidin-2-yl)-3-mesyl-(methyl)sulfamoylurea]
Triticum aestivum % damage [1, 4]: 0% | Veronica hederifolia % effect [2, 4]: 20%

CCCOc1nn(C(=O)[N-]S(=O)(=O)c2ccccc2C(=O)OC)c(=O)n1C.[Na+] [propoxycarbazone-sodium]
Triticum aestivum % damage [1, 5]: 1% | Veronica hederifolia % effect [2, 5]: 25%
